Assay results from patent US6737383B1, “Herbicidal oxadiazolidines” (priority 1999, dated 2004).

Experiments:
bedstraw = assay: Test B pre/postemergence bedstraw; assay type: in vivo, Galium aparine; conditions: for Bedstraw plant response rating: Postemergence; for Plant response rating, Bedstraw: Preemergence
In short: (§1)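 Herbicidal effect was estimated by eye on a ten-point control scale after plants spent twelve to sixteen days in a greenhouse following soil or foliar treatment. Foliar sprays targeted plants at one to four leaves; all doses were formulated in a non-phytotoxic solvent with surfactant.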

blackgrass = assay: Test B pre/postemergence blackgrass; assay type: in vivo, Alopecurus myosuroides
In short: as §1

surinam grass = assay: Test B pre/postemergence surinam grass; assay type: in vivo, Brachiaria decumbens
In short: as §1

corn = assay: Test B pre/postemergence corn; assay type: in vivo, Zea mays
In short: as §1

crabgrass = assay: Test B pre/postemergence crabgrass; assay type: in vivo, Digitaria sanguinalis
In short: as §1

giant foxtail = assay: Test B pre/postemergence giant foxtail; assay type: in vivo, Setaria faberii
In short: as §1

morningglory = assay: Test B pre/postemergence morningglory; assay type: in vivo, Ipomoea hederacea
In short: as §1

pigweed = assay: Test B pre/postemergence pigweed; assay type: in vivo, Amaranthus retroflexus
In short: as §1

rape = assay: Test B pre/postemergence rape; assay type: in vivo, Brassica napus
In short: as §1

soybean = assay: Test B pre/postemergence soybean; assay type: in vivo, Glycine max
In short: as §1

velvetleaf = assay: Test B pre/postemergence velvetleaf; assay type: in vivo, Abutilon theophrasti; conditions: for Plant response rating, Velvetleaf: Rate 250 g/ha
In short: as §1

wheat = assay: Test B pre/postemergence wheat; assay type: in vivo, Triticum aestivum; conditions: for Plant response rating, Wheat: Rate 250 g/ha
In short: as §1

wild oat = assay: Test B pre/postemergence wild oat; assay type: in vivo, Avena fatua; conditions: for Plant response rating, Wild oats: Rate 250 g/ha
In short: as §1

purple nutsedge = assay: Test B pre/postemergence purple nutsedge; assay type: in vivo, Cyperus rotundus
In short: as §1

rice = assay: Test B flood test rice; assay type: in vivo, Oryza sativa
In short: (§2)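 Flood test on plants grown to the 2-leaf stage; treated plants kept in greenhouse twelve to sixteen days, then visually rated against controls on a 0 (no effect) to 10 (complete control) scale.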

duck salad = assay: Test B flood test duck salad; assay type: in vivo, Heteranthera limosa
In short: as §2

[1] = Postemergence, Rate 62 g/ha, scale 0 to 10, 0 is no effect, 10 is complete control
[2] = Postemergence, Rate 125 g/ha, scale of 0 to 10 where 0 is no effect and 10 is complete control
[3] = Postemergence, Rate 250 g/ha, scale 0 to 10, 0 no effect, 10 complete control
[4] = Preemergence, Rate 62 g/ha, scale 0 to 10 (0 no effect, 10 complete control)
[5] = Preemergence, Rate 125 g/ha, scale 0 to 10 (0 no effect, 10 complete control)
[6] = Preemergence, Rate 250 g/ha, scale of 0 to 10 where 0 is no effect and 10 is complete control
[7] = Preemergence, Rate 500 g/ha, scale 0 (no effect) to 10 (complete control)
[8] = Rate 500 g/ha, Postemergence, scale 0 to 10, 0 no effect, 10 complete control
[9] = Preemergence, Rate 125 g/ha, 0 is no effect, 10 is complete control
[10] = Preemergence, scale of 0 to 10 where 0 is no effect and 10 is complete control
[11] = Postemergence, scale 0 to 10, 0 is no effect, 10 is complete control
[12] = Postemergence (flood test species), Rate 125 g/ha, scale of 0 to 10 where 0 is no effect and 10 is complete control
[13] = Rate 500 g/ha, listed under Postemergence (flood test species), scale 0 to 10, 0 no effect, 10 complete control

Question: Which results are given for CC(C)N(C(=O)n1oc(=O)n(-c2cnn(C)c2Cl)c1=O)c1ccc(F)cc1 [Compound 97]?
Answer: Bedstraw plant response rating (bedstraw; Rate 62 g/ha, scale 0 to 10, 0 is no effect, 10 is complete control): 0; Bedstraw plant response rating (bedstraw; Rate 250 g/ha, scale 0 to 10, 0 no effect, 10 complete control): 1; Plant response rating, Bedstraw (bedstraw; Rate 125 g/ha, scale 0 to 10 (0 no effect, 10 complete control)): 0; Plant response rating, Bedstraw (bedstraw; Rate 250 g/ha, scale of 0 to 10 where 0 is no effect and 10 is complete control): 0; Bedstraw plant response rating (bedstraw; Rate 125 g/ha, scale 0 to 10, 0 no effect, 10 complete control): 0; Bedstraw plant response rating (bedstraw; Rate 500 g/ha, scale 0 to 10, 0 no effect, 10 complete control): 3; Blackgrass plant response rating (blackgrass; [1]): 0; Blackgrass plant response rating (blackgrass; [2]): 0; Blackgrass plant response rating (blackgrass; [3]): 3; Blackgrass plant response rating (blackgrass; [4]): 0; Plant response rating, Blackgrass (blackgrass; [5]): 1; Plant response rating, Blackgrass (blackgrass; [6]): 1; Blackgrass plant response rating (blackgrass; [7]): 3; Blackgrass plant response rating (blackgrass; [8]): 5; B. signalgrass plant response rating (surinam grass; [1]): 0; B. signalgrass plant response rating (surinam grass; [3]): 0; B. signalgrass plant response rating (surinam grass; [4]): 0; Plant response rating, B. signalgrass (surinam grass; [5]): 2; Plant response rating, B. signalgrass (surinam grass; [6]): 3; B. signalgrass plant response rating (surinam grass; [7]): 4; B. signalgrass plant response rating (surinam grass; Rate 125 g/ha, Postemergence, scale 0 to 10, 0 no effect, 10 complete control): 0; B. signalgrass plant response rating (surinam grass; Rate 500 g/ha, Postemergence, scale of 0 to 10 where 0 is no effect and 10 is complete control): 0; Corn plant response rating (corn; [1]): 0; Corn plant response rating (corn; [2]): 0; Corn plant response rating (corn; [3]): 0; Corn plant response rating (corn; [4]): 0; Plant response rating, Corn (corn; [5]): 0; Plant response rating, Corn (corn; [6]): 0; Corn plant response rating (corn; [7]): 0; Corn plant response rating (corn; [8]): 0; Crabgrass plant response rating (crabgrass; [1]): 0; Crabgrass plant response rating (crabgrass; [2]): 2; Crabgrass plant response rating (crabgrass; [3]): 4; Crabgrass plant response rating (crabgrass; [4]): 0; Plant response rating, Crabgrass (crabgrass; [5]): 0; Plant response rating, Crabgrass (crabgrass; [6]): 1; Crabgrass plant response rating (crabgrass; [7]): 4; Giant foxtail plant response rating (giant foxtail; [1]): 0; Giant foxtail plant response rating (giant foxtail; [2]): 0; Giant foxtail plant response rating (giant foxtail; [3]): 3; Giant foxtail plant response rating (giant foxtail; [4]): 0; Plant response rating, Giant foxtail (giant foxtail; [5]): 3; Plant response rating, Giant foxtail (giant foxtail; [6]): 4; Giant foxtail plant response rating (giant foxtail; [7]): 8; Giant foxtail plant response rating (giant foxtail; [8]): 4; Morningglory plant response rating (morningglory; [1]): 1; Morningglory plant response rating (morningglory; [2]): 1; Morningglory plant response rating (morningglory; [3]): 3; Morningglory plant response rating (morningglory; [4]): 0; Plant response rating, Morningglory (morningglory; [5]): 0; Plant response rating, Morningglory (morningglory; [6]): 0; Morningglory plant response rating (morningglory; [7]): 0; Morningglory plant response rating (morningglory; [8]): 3; Redroot pigweed plant response rating (pigweed; [1]): 0; Redroot pigweed plant response rating (pigweed; [2]): 0; Redroot pigweed plant response rating (pigweed; [4]): 0; Plant response rating, Redroot pigweed (pigweed; [6]): 4; Redroot pigweed plant response rating (pigweed; [7]): 10; Redroot pigweed plant response rating (pigweed; [8]): 5; Rape plant response rating (rape; [1]): 0; Rape plant response rating (rape; [2]): 0; Rape plant response rating (rape; [3]): 0; Rape plant response rating (rape; [4]): 0; Plant response rating, Rape (rape; [5]): 0; Plant response rating, Rape (rape; [6]): 5; Rape plant response rating (rape; [7]): 6; Rape plant response rating (rape; [8]): 3; Soybean plant response rating (soybean; [1]): 0; Soybean plant response rating (soybean; [2]): 0; Soybean plant response rating (soybean; [4]): 0; Plant response rating, Soybean (soybean; [5]): 0; Plant response rating, Soybean (soybean; [6]): 0; Soybean plant response rating (soybean; [7]): 2; Plant response rating, Soybean (soybean; Rate 250 g/ha, Postemergence, scale 0 to 10, 0 is no effect, 10 is complete control): 1; Soybean plant response rating (soybean; [8]): 2; Velvetleaf plant response rating (velvetleaf; [1]): 0; Velvetleaf plant response rating (velvetleaf; [2]): 0; Velvetleaf plant response rating (velvetleaf; [4]): 0; Velvetleaf plant response rating (0 to 10 scale) (velvetleaf; [9]): 0; Plant response rating, Velvetleaf (velvetleaf; [10]): 0; Velvetleaf plant response rating (velvetleaf; [7]): 0; Plant response rating, Velvetleaf (velvetleaf; [11]): 2; Velvetleaf plant response rating (velvetleaf; [8]): 3; Wheat plant response rating (wheat; [1]): 0; Wheat plant response rating (wheat; [2]): 0; Wheat plant response rating (wheat; [4]): 0; Wheat plant response rating (0 to 10 scale) (wheat; [9]): 0; Plant response rating, Wheat (wheat; [10]): 0; Wheat plant response rating (wheat; [7]): 2; Plant response rating, Wheat (wheat; [11]): 0; Wheat plant response rating (wheat; [8]): 0; Wild oats plant response rating (wild oat; [1]): 0; Wild oats plant response rating (wild oat; [2]): 0; Wild oats plant response rating (wild oat; [4]): 0; Wild oats plant response rating (0 to 10 scale) (wild oat; [9]): 2; Plant response rating, Wild oats (wild oat; [10]): 2; Wild oats plant response rating (wild oat; [7]): 5; Plant response rating, Wild oats (wild oat; [11]): 0; Wild oats plant response rating (wild oat; [8]): 0; Nutsedge plant response rating (purple nutsedge; [1]): 0; Nutsedge plant response rating (purple nutsedge; [2]): 0; Nutsedge plant response rating (purple nutsedge; [3]): 0; Nutsedge plant response rating (purple nutsedge; [4]): 0; Plant response rating, Nutsedge (purple nutsedge; [5]): 0; Plant response rating, Nutsedge (purple nutsedge; [6]): 0; Nutsedge plant response rating (purple nutsedge; [7]): 0; Nutsedge plant response rating (purple nutsedge; [8]): 0; Rice plant response rating (rice; [12]): 0; Rice plant response rating (rice; [1]): 0; Plant response rating, Rice (rice; Rate 250 g/ha, Postemergence (flood test), scale 0 to 10, 0 is no effect, 10 is complete control): 0; Rice plant response rating (rice; [13]): 3; Ducksalad plant response rating (duck salad; [12]): 0; Ducksalad plant response rating (duck salad; [1]): 0; Ducksalad plant response rating (duck salad; [13]): 2; Ducksalad plant response rating (duck salad; flood test, listed under Postemergence, Rate 250 g/ha, scale 0 to 10, 0 no effect, 10 complete control): 2
